Data reported in patent US10562935B2, “Stapled peptides and uses thereof” (London Health Sciences Centre Research Inc., priority 2015, dated 2020).
Bridges are numbered along the chain shown (N, C = ends).

Key:
[1] = Direct HA-binding ELISA of biotinylated peptides on HA coated plates (Example 4); design: key to HA binding: absorbance (color) read at 450 nm; conditions: for HA binding: as repeated in tables 16, 18, 20; for HA direct binding (OD): optical density, summary tables 15, 17, 19
Summary of the method: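 N-terminally biotinylated peptides (AEEA spacer) added to HA-coated wells at 0.8 or 0.08 μM, n=3, overnight at 4° C with shaking; biotin-labeled 7 kDa RHAMM as positive control. Bound peptide detected with streptavidin-HRP (1 hr, room temperature) and TMB substrate (5-10 min), absorbance at 450 nm.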

[2] = Circular dichroism (CD) spectroscopy of HABD2 peptides in Milli-Q water (Example 1); assay type: physicochemical
From the text: In addition, a large mean residue ellipticity indicates greater α-helical character. […] This was predicted to be the case, as there is a lack of contributing residues that might form a hydrophobic core, thereby helping to stabilize the secondary structure of the linear peptide. For this reason, bridges were introduced into the peptides. […] The differences in α-helicity induced by the bridges placed at different points within each peptide may be due to the differences in their primary sequences. Specifically, two amino acids (at the i and i+4 position) have to be replaced in order to form the lactam bridge. In compound 133, leucine was replaced at both the i and i+4 position; while in compound 136, glutamine was replaced at the i position and aspartic acid was replaced at i+4. Leucine and glutamine are proposed to be helix-stabilizing residues.
A larger portion of the RHAMM protein was used as the reference for α-helical character of the truncated peptides. 7 kDa RHAMM (SEQ ID NO: 1) is a mini protein that is composed of 62 amino acids, which was derived from the C-terminus of the full-length RHAMM sequence. It contains both HABDs, and is predicted to have almost complete α-helix shape, similar to that of native full-length RHAMM.
A peptide's α-helicity can be quantified using equations 1-3: fH=[([θ]obs222−[θ]c)/([θ]max222−[θ]c)] (Equation 1) [θ]c=2220+53T (Equation 2) [θ]max222=(−44000+250T)(1−k/N) (Equation 3) where fH is the ratio of the average number of helical hydrogen bonds divided by the total number of hydrogen bonds that can be found in a peptide, T is the temperature in degrees Celsius, N is the number of residues in the peptide and k is a constant of ellipticity when 100% of the structure is α-helical (3 for carboxyamidated peptides).
Milli-Q water was chosen as the solvent in which all peptides would be dissolved for CD spectroscopy, as it is a UV invisible solvent, which is a requirement of the analytical technique, and it represents RHAMM's natural environment in the body. Luo and Baldwin [18] stated that when peptides are taken out of their native protein sequence, they usually show little to no helical formation in water alone. For this reason, TFE/H2O solutions are commonly used in studies to observe the α-helix characteristics, and may improve the helical nature of the peptides observed here. However, a helix-stabilizing solvent, such as TFE, would not be as contextually relevant, as there are no solvent stabilizing effects in the body. Thus use of TFE would tend to produce skewed results and not be representative of the peptide's natural behavior.

| Substance | HA binding [1] | HA direct binding (OD) [1] [OD] | [θ]222/[θ]208 ratio of ellipticities ([2]; 0.5 mM in Milli-Q water) | fH fraction helicity ([2]; 0.5 mM in Milli-Q water, equations 1-3) | α-helical character by CD (in words) ([2]; Milli-Q water) | Molar ellipticity [θ]192 ([2]; λ = 192 nm, 0.5 mM in Milli-Q water) | Molar ellipticity [θ]208 ([2]; λ = 208 nm, 0.5 mM in Milli-Q water) | Molar ellipticity [θ]222 ([2]; λ = 222 nm, 0.5 mM in Milli-Q water) |
| --- | --- | --- | --- | --- | --- | --- | --- | --- |
| Ac-(cyclo-10-14, cyclo-15-19)-KIKHVVKLK[EENSK][KKSEE]SKLRSQLVKRK-NH2 (Ac-KIKHVVKLKEENSKKKSEESKLRSQLVKRK-NH2; lactam 10-14, 15-19; SMILES CC[C@H](C)[C@H](NC(=O)[C@H](CCCCN)NC(C)=O)C(=O)N[C@@H](CCCCN)C(=O)N[C@@H](Cc1c[nH]cn1)C(=O)N[C@H](C(=O)N[C@H](C(=O)N[C@@H](CCCCN)C(=O)N[C@@H](CC(C)C)C(=O)N[C@@H](CCCCN)C(=O)N[C@H]1CCC(=O)NCCCC[C@@H](C(=O)N[C@H]2CCCCNC(=O)CC[C@@H](C(=O)N[C@@H](CO)C(=O)N[C@@H](CCCCN)C(=O)N[C@@H](CC(C)C)C(=O)N[C@@H](CCCNC(=N)N)C(=O)N[C@@H](CO)C(=O)N[C@@H](CCC(N)=O)C(=O)N[C@@H](CC(C)C)C(=O)N[C@H](C(=O)N[C@@H](CCCCN)C(=O)N[C@@H](CCCNC(=N)N)C(=O)N[C@@H](CCCCN)C(N)=O)C(C)C)NC(=O)[C@H](CCC(=O)O)NC(=O)[C@H](CO)NC(=O)[C@H](CCCCN)NC2=O)NC(=O)[C@H](CO)NC(=O)[C@H](CC(N)=O)NC(=O)[C@H](CCC(=O)O)NC1=O)C(C)C)C(C)C) [Compound 268] | 0.19 | 0.19 |  |  |  |  |  |  |
| Ac-(cyclo-10-14, cyclo-15-19)-KIKHVVKLK[KENSE][EKSEK]SKLRSQLVKRK-NH2 [Compound 269] | 0.19 | 0.19 |  |  |  |  |  |  |
| Ac-(cyclo-11-15, cyclo-16-20)-KIKHVVKLKD[ENSQK][ESEVK]KLRSQLVKRIK-NH2 [Compound 267] | 0.01 | 0.01 |  |  |  |  |  |  |
| Ac-(cyclo-28-32)-NLKQKIKHVVKLKDENSQLKSEVSKLR[EQLVK]RKQN-NH2 (Ac-NLKQKIKHVVKLKDENSQLKSEVSKLREQLVKRKQN-NH2; lactam 28-32; SMILES CC[C@H](C)[C@H](NC(=O)[C@H](CCCCN)NC(=O)[C@H](CCC(N)=O)NC(=O)[C@H](CCCCN)NC(=O)[C@H](CC(C)C)NC(=O)[C@H](CC(N)=O)NC(C)=O)C(=O)N[C@@H](CCCCN)C(=O)N[C@@H](Cc1c[nH]cn1)C(=O)N[C@H](C(=O)N[C@H](C(=O)N[C@@H](CCCCN)C(=O)N[C@@H](CC(C)C)C(=O)N[C@@H](CCCCN)C(=O)N[C@@H](CC(=O)O)C(=O)N[C@@H](CCC(=O)O)C(=O)N[C@@H](CC(N)=O)C(=O)N[C@@H](CO)C(=O)N[C@@H](CCC(N)=O)C(=O)N[C@@H](CC(C)C)C(=O)N[C@@H](CCCCN)C(=O)N[C@@H](CO)C(=O)N[C@@H](CCC(=O)O)C(=O)N[C@H](C(=O)N[C@@H](CO)C(=O)N[C@@H](CCCCN)C(=O)N[C@@H](CC(C)C)C(=O)N[C@@H](CCCNC(=N)N)C(=O)N[C@H]1CCC(=O)NCCCC[C@@H](C(=O)N[C@@H](CCCNC(=N)N)C(=O)N[C@@H](CCCCN)C(=O)N[C@@H](CCC(N)=O)C(=O)N[C@@H](CC(N)=O)C(N)=O)NC(=O)[C@H](C(C)C)NC(=O)[C@H](CC(C)C)NC(=O)[C@H](CCC(N)=O)NC1=O)C(C)C)C(C)C)C(C)C) [Compound 277] | 0.12 | 0.12 |  |  |  |  |  |  |
| Ac-KIKHVVKLKDENSQLKSEVSKLRSQLVKRK-NH2 [Compound 265] | 0.10 | 0.10 |  |  |  |  |  |  |
| Ac-NLKQKIKHVVKLKDENSQLKSEVSKLRSQLVKRKQN-NH2 [Compound 275] | 0.11 | 0.11 |  |  |  |  |  |  |
| Ac-VSKLRSQLVKRKQN-NH2 [Compound 132] | 0.03 | 0.03 | 0.27 | 0.13 | minimal α-helical character | −433.48 deg cm^2 dmol^−1 residue^−1 | −4944.38 deg cm^2 dmol^−1 residue^−1 | −1339.76 deg cm^2 dmol^−1 residue^−1 |
